Laboratory results published in patent US11299493B2, “Heterocyclic compounds and uses thereof” (NUVATION BIO INC., priority 2017, dated 2022).
Blank lines part the entries; values can stand above or below the molecule they belong to.

Key:
HCT-116 cells = assay: Cell proliferation assay (Cell Titer-Glo) in HCT-116 cells; type: cell-based; conditions: Homo sapiens; HCT-116, Cell Titer-Glo, typically 72 h; read-out: IC50 HCT116
Protocol: (§1) The effects of test compounds were studied in five cell lines with various histotypes. The cancer cells (Table 4) were harvested during the logarithmic growth period and counted. Adjust cell concentrations to the appropriated number with respective medium, and add 90 μL cell suspensions to 96-well plates. After cells were seeded, the plates were shaken gently to distribute cells evenly and incubated at 37° C., 5% CO2 on day 1.
(§2) Cells were treated with test compounds at 9 concentrations within a desired concentration range (e.g. 1.5 nM-10 μM) on day 2 by series diluting the test compound stock solution (10 mM in DMSO) with culture medium. Cell viability was assessed by Cell Titer-Glo® as recommended by Promega (Cat. No.: G7572, Promega) typically 72 h post-treatment.
(§3) Cell viability data were plotted using GraphPad Prism (version 5, GraphPad Software, Inc., San Diego, Calif.). In addition, a nonlinear regression model with a sigmoidal dose response and variable slope within GraphPad Prism was used to calculate the IC50 value of individual test compounds.

A549 cells = assay: Cytotoxicity assay (resazurin) in A549 cells; type: cell-based; conditions: Homo sapiens, A549, 96 hr, read-out: Cell Viability IC50 A549
Protocol: (§4) Cells were allowed to grow at 37° C. for 24 hr in 5% CO2 environment (culture conditions) in a Nuaire incubator (humidified). Serially diluted test compounds (100 μL) within the desired testing concentration ranges were added to the culture plate were further incubated in culture conditions for 72 hr and 96 hr for A427 and A549 respectively. The experiment was terminated at the designated incubation time by replacing the medium with 100 μL of 1 mM of resazurin (R7017; Sigma) prepared in respective culture medium, and the plates were further incubated in culture conditions for 4-6 hr. Fluorescence was recorded using a multimodal plate reader (Biotek Synergy Neo) at an excitation wavelength of 535 nm and emission wavelength of 590 nm to obtain relative fluorescence units. Data analysis was done by subtracting the background fluorescence (only medium blank) value from each reading and then normalizing with the vehicle control (DMSO treated cells) to obtain percent survival/proliferation. Percent survival was then subtracted by 100 to get the percent inhibition of proliferation which was used to calculate IC50 values.

LoVo cells = assay: Cell proliferation assay (Cell Titer-Glo) in LoVo cells; type: cell-based; conditions: Homo sapiens, typically 72 h
Protocol: as §1, §2, §3

NCI-H460 cells = assay: Cell proliferation assay (Cell Titer-Glo) in NCI-H460 cells; type: cell-based; conditions: Homo sapiens, typically 72 h
Protocol: as §1, §2, §3

A427 cells [1] = assay: Cytotoxicity assay (resazurin) in A427 cells; type: cell-based; conditions: Homo sapiens, read-out: Cell Viability IC50 A427
WEE1 kinase enzyme = WEE1 kinase enzyme (Homo sapiens (Human), UniProt P30291); assay: WEE1 IC50 determination, LanthaScreen Terbium Labeled TR-FRET kinase assay; type: biochemical; conditions: WEE1 enzyme 1 nM, ATP 10 μM, 1 h
WEE1 kinase enzyme, sequence (P30291 whole entry): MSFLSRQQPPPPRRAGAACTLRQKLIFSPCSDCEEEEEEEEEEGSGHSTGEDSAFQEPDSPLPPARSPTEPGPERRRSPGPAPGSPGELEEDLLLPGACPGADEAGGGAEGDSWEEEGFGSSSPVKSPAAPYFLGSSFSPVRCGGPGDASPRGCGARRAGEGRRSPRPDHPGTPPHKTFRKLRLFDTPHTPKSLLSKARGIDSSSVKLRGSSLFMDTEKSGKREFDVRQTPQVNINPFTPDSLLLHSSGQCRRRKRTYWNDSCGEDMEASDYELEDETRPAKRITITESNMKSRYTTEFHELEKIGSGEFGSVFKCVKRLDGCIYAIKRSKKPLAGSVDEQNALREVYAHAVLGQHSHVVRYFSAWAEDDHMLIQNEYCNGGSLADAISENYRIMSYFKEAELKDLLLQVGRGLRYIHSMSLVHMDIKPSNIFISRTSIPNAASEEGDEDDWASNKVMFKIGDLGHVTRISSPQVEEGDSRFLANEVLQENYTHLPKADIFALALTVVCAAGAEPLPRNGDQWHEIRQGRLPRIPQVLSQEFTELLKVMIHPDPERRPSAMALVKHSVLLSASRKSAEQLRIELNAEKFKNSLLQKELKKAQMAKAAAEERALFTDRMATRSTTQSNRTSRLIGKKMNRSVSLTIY

A427 cells [2] = assay: Cell proliferation assay (Cell Titer-Glo) in A427 cells; type: cell-based; conditions: Homo sapiens, A-427, typically 72 h
Protocol: as §1, §3

A2780 cells = assay: Cell proliferation assay (Cell Titer-Glo) in A2780 cells; type: cell-based; conditions: Homo sapiens, typically 72 h
Protocol: as §1, §2, §3

Panc 10.05 cells [3] = assay: Synergistic activity with gemcitabine, combination matrix method, Panc 10.05 cells; type: cell-based; conditions: fractional effect level of about 0.5, Chou-Talalay
Protocol: (§5) Determination of synergistic activity of compounds in combination with a chemotherapeutic drug on cell viability is determined by a combination matrix method. Chemotherapeutics that may be used in the combination include but are not limited to a platinum-based chemotherapeutic agent, a DNA alkylating agent, a topoisomerase inhibitor, an anthracycline, a histone deacetylase inhibitor, a bromodomain inhibitor, a kinase inhibitor, a mTOR inhibitor, a PARP inhibitor, an ATM inhibitor, an ATR inhibitor, a Wee1 inhibitor, a proteasome inhibitor, and a nucleotide analog or precursor analog. Cancer cell lines that may be used in the assay include but are not limited to lung cancer, leukemia, lymphoma, multiple myeloma, ovarian cancer, breast cancer, pancreatic cancer, stomach cancer, colon cancer, liver cancer, head and neck cancer, kidney cancer, skin cancer and brain cancer cell lines. Cells are seeded in a 96-well plate and incubated at 37° C. in cell culture conditions for 24 hr. […] Measurement of fluorescence at an excitation and emission wavelength of 535 and 590 nm respectively. Synergy is evaluated with the combination index (CI) value using the Chou-Talalay method in which additive effect (CI=1), synergism (CI<1), and antagonism (CI>1) in drug combinations is determined (Chou T C. Cancer Res 2010; 70:440-6.). […]

AsPC-1 cells = assay: Synergistic activity with gemcitabine, combination matrix method, AsPC-1 cells; type: cell-based; conditions: fractional effect level of about 0.5, Chou-Talalay
Protocol: as §5

A172 cells = assay: Cytotoxicity assay (resazurin) in A172 cells; type: cell-based; conditions: Homo sapiens, A 172, read-out: Cell Viability IC50 A172
Protocol: [The source words this procedure for another cell line and reports this cell line under the same test.] as §4, with “A549 (CCL-185; ATCC) and A427 (HTB-53; ATCC), both lung epithelial cell lines were seeded in their respective medium (DMEM/MEM, 10569044/41090101; Gibco) at a cell count of 1500 cells per 100 μL per well in a 96 well edge plate (167425; ThermoFisher). Cells” for “Cells”, “values. Potency of compounds in other cell lines (As-Pc-1, Panc 10.05, A172) was determined in an analogous manner.” for “values.”

As-Pc-1 cells = assay: Cytotoxicity assay (resazurin) in As-Pc-1 cells; type: cell-based; conditions: Homo sapiens, ASPC1; As-Pc-1, resazurin; read-out: Cell Viability IC50 As-Pc-1
Protocol: [The source words this procedure for another cell line and reports this cell line under the same test.] as §4, with “A549 (CCL-185; ATCC) and A427 (HTB-53; ATCC), both lung epithelial cell lines were seeded in their respective medium (DMEM/MEM, 10569044/41090101; Gibco) at a cell count of 1500 cells per 100 μL per well in a 96 well edge plate (167425; ThermoFisher). Cells” for “Cells”, “values. Potency of compounds in other cell lines (As-Pc-1, Panc 10.05, A172) was determined in an analogous manner.” for “values.”

Panc 10.05 cells [4] = assay: Cytotoxicity assay (resazurin) in Panc 10.05 cells; type: cell-based; conditions: Homo sapiens, Panc1005; Panc 10.05, resazurin; read-out: Cell Viability IC50 Panc 10.05
Protocol: [The source words this procedure for another cell line and reports this cell line under the same test.] as §4, with “A549 (CCL-185; ATCC) and A427 (HTB-53; ATCC), both lung epithelial cell lines were seeded in their respective medium (DMEM/MEM, 10569044/41090101; Gibco) at a cell count of 1500 cells per 100 μL per well in a 96 well edge plate (167425; ThermoFisher). Cells” for “Cells”, “values. Potency of compounds in other cell lines (As-Pc-1, Panc 10.05, A172) was determined in an analogous manner.” for “values.”

Compound: C=CCn1c(=O)c2cnc(Nc3ccc4c(c3)CNCC4)nc2n1-c1cccc(C(C)(C)O)n1 [Example 1.1]
IC50 (HCT-116 cells): 1040 nM
IC50 (A549 cells): 460 nM
IC50 (LoVo cells): 258 nM
IC50 (NCI-H460 cells): > 10000 nM
IC50 (A427 cells [1]; A-427, A427, 72 hr): 95 nM
IC50 (WEE1 kinase enzyme): 2.4 nM
IC50 (A427 cells [2]): 64 nM

IC50 (A2780 cells): 1100 nM
IC50 (WEE1 kinase enzyme): 3 nM
Compound: CCn1c(=O)c2cnc(Nc3ccc4c(c3)CNCC4)nc2n1-c1cccc(C(C)(C)O)n1 [Example 1.7]
IC50 (A549 cells): 660 nM
IC50 (A427 cells [1]; A-427, 72 h, A427, 72 hr): 800 nM

IC50 (WEE1 kinase enzyme): 6 nM
Compound: CC(C)n1c(=O)c2cnc(Nc3ccc4c(c3)CCNC4)nc2n1-c1ccnc(C(C)(C)C)c1 [Example 1.138]
combination index with gemcitabine (Panc 10.05 cells [3]): less than 1
combination index with gemcitabine (AsPC-1 cells): less than 1
IC50 (A172 cells): 4090 nM
IC50 (A549 cells): 2420 nM
IC50 (As-Pc-1 cells): 200 nM
IC50 (A427 cells [1]; A-427, 72 h, A427, 72 hr): 993 nM
IC50 (Panc 10.05 cells [4]): 2820 nM
